The term ΔTm denotes the change in melting temperature against a reference sample. For orientation: Tm means the temperature at the midpoint of the melting transition.

This passage reports Activity, ΔTm and Tm results from ChEMBL document CHEMBL4118279, “1,3-Di(quinolin-2-yl)guanidine binds to GGCCCC hexanucleotide repeat DNA in C9ORF72” (Bioorg Med Chem Lett, 2018).

The source made the active and inactive calls. The rule behind the calls is not given here.

Assay [1] is described as follows: Binding affinity to (GGCCCC)9 motif-containing duplex DNA (unknown origin) assessed as formation of CD bands at 20 uM at 245 to 282 nm by CD spectrometry.
Assay [2] in a line: Binding affinity to GGTTCC/GGTTCC motif-containing duplex DNA (unknown origin) assessed as change in melting temperature at 20 uM by UV-spectrophotometric method.
Assay [3] is described as follows: Binding affinity to GGTCCC/GGTCCC motif-containing duplex DNA (unknown origin) assessed as change in melting temperature at 20 uM by UV-spectrophotometric method.
The nature of assay [4]: Binding affinity to GGCCCC/GGCCCC motif-containing duplex DNA (unknown origin) at 80 uM by ESI-TOF-MS analysis.
Assay [5] can be described thus: Binding affinity to GGGGCC/GGGGCC motif-containing duplex DNA (unknown origin) assessed as change in melting temperature at 20 uM by UV-spectrophotometric method.
A short description of assay [6]: Binding affinity to GGCCCC/GGGGCC motif-containing duplex DNA (unknown origin) assessed as change in melting temperature at 20 uM by UV-spectrophotometric method.
Assay [7] can be described thus: Binding affinity to GGTCCC/GGTCCC motif-containing duplex DNA (unknown origin) assessed as formation of CD bands at 20 uM at 310 to 345 nm by CD spectrometry.
Assay [8] in a line: Binding affinity to (GGCCCC)5 motif-containing duplex DNA (unknown origin) at 80 uM by ESI-TOF-MS analysis.
Assay [9] in a line: Binding affinity to GGTCCC/GGCCCC motif-containing duplex DNA (unknown origin) assessed as change in melting temperature at 20 uM by UV-spectrophotometric method.
A short description of assay [10]: Binding affinity to GGTTCC/GGCCCC motif-containing duplex DNA (unknown origin) assessed as change in melting temperature at 20 uM by UV-spectrophotometric method.
Assay [11] in a line: Binding affinity to GGAACC/GGAACC motif-containing duplex DNA (unknown origin) assessed as change in melting temperature at 20 uM by UV-spectrophotometric method.
Assay [12] in a line: Binding affinity to GGCCCC/GGCCCC motif-containing duplex DNA (unknown origin) at 40 uM by ESI-TOF-MS analysis.
The nature of assay [13]: Binding affinity to GGCCC/GGCCC motif-containing duplex DNA (unknown origin) assessed as change in melting temperature at 20 uM by UV-spectrophotometric method.
Assay [14] can be described thus: Binding affinity to GGCTCC/GGCTCC motif-containing duplex DNA (unknown origin) assessed as change in melting temperature at 20 uM by UV-spectrophotometric method.
Assay [15] in a line: Binding affinity to GGCTCC/GGCCCC motif-containing duplex DNA (unknown origin) assessed as change in melting temperature at 20 uM by UV-spectrophotometric method.
Assay [16] in a line: Binding affinity to GGTCCC/GGCCCC motif-containing duplex DNA (unknown origin) assessed as formation of CD bands at 20 uM at 300 to 345 nm by CD spectrometry.
Assay [17] is described as follows: Binding affinity to GGCCCC/GGGGCC motif-containing duplex DNA (unknown origin) at 40 uM by ESI-TOF-MS analysis.
A short description of assay [18]: Binding affinity to GGCCCC/GGCCCC motif-containing duplex DNA (unknown origin) assessed as formation of CD bands at 20 uM at 310 to 345 nm by CD spectrometry.
Assay [19] can be described thus: Binding affinity to (GGCCCC)9 motif-containing duplex DNA (unknown origin) assessed as melting temperature at 20 uM by UV-spectrophotometric method.
Assay [20] is described as follows: Binding affinity to GGTCCC/GGCTCC motif-containing duplex DNA (unknown origin) assessed as change in melting temperature at 20 uM by UV-spectrophotometric method.
Assay [21] is described as follows: Binding affinity to GGCCCC/GGCCCC motif-containing duplex DNA (unknown origin) assessed as change in melting temperature at 20 uM by UV-spectrophotometric method.
Assay [22] can be described thus: Binding affinity to GGCTCC/GGCCCC motif-containing duplex DNA (unknown origin) assessed as formation of CD bands at 20 uM at 310 to 345 nm by CD spectrometry.

Turning to `N=C(Nc1ccc2ccccc2n1)Nc1ccc2ccccc2n1`, the result in [1], in assay [4], in assay [8], in [12], in assay [16] and in [18] was Active. The ΔTm in assay [2] was -0.1 °C; in assay [3] it was 11.5 °C; in assay [5] it was 0.7 °C; in assay [6], -1 °C; in assay [9], 14.4 °C; in assay [10], 8.6 °C. In addition, the ΔTm is 2.1 °C in assay [11]; 7.8 °C in assay [13]; 8.3 °C in assay [14]; 11.2 °C in assay [15]; 8.9 °C in assay [20]; 19.6 °C in assay [21]. Further, the result in assay [7], in assay [17] and in [22] was inactive. In addition, in assay [19], the Tm is 67.8 °C.
For `N=C(N)Nc1ccc2ccccc2n1`, the shift in melting temperature (ΔTm) was -1.3 °C in [2]; -0.7 °C in [5]; -2.8 °C in [6]; -0.5 °C in assay [11]; 3.4 °C in [21]. Also, the result in assay [18] was Active.
